Kd data for eight compounds are collected here from ChEMBL document CHEMBL1133136, “A high-throughput screening utilizing intramolecular fluorescence resonance energy transfer for the discovery of the molecules that bind HIV-1 TAR RNA specifically” (Bioorg Med Chem Lett, 2000).

The structures appear in SMILES notation. Residues, ends and D or L forms follow the SMILES beside them.

The Kd is the free concentration of one partner at which half of the binding sites on the other are occupied at equilibrium, for simple one-to-one binding.

The first experiment deals with Nucleic Acid. Kind of experiment: Dissociation constant with HIV-1 trans activation responsive element of mRNA was determined.
Settings: not given
It counts as nucleic-acid assay, Human immunodeficiency virus 1.
Turning to `C[C@H](N)C(=O)N[C@@H](C)C(=O)N[C@@H](C)C(=O)N[C@@H](C)C(=O)N[C@@H](C)C(=O)N[C@@H](CCCN=C(N)N)C(=O)N[C@@H](CCCN=C(N)N)C(=O)N[C@@H](C)C(=O)N[C@@H](CCCN=C(N)N)C(=O)N[C@@H](C)C(=O)N[C@@H](C)C(=O)N[C@@H](C)C(=O)N[C@@H](C)C(=O)N[C@@H](C)C(=O)N[C@@H](C)C(=O)N[C@@H](C)C(=O)O` (H-AAAAARRARAAAAAAA-OH), the dissociation constant (Kd) entry is given as “No binding”.

`C[C@H](N)C(=O)N[C@@H](C)C(=O)N[C@@H](C)C(=O)N[C@@H](C)C(=O)N[C@@H](C)C(=O)N[C@@H](CCCN=C(N)N)C(=O)N[C@@H](CCCN=C(N)N)C(=O)N[C@@H](C)C(=O)N[C@@H](CCCN=C(N)N)C(=O)N[C@@H](CCCN=C(N)N)C(=O)N[C@@H](C)C(=O)N[C@@H](C)C(=O)N[C@@H](C)C(=O)N[C@@H](C)C(=O)N[C@@H](C)C(=O)N[C@@H](C)C(=O)O` (H-AAAAARRARRAAAAAA-OH): the Kd result was “No binding”.

Staying with this experiment, now noted: read-out: Kd.
On to `C[C@H](N)C(=O)N[C@@H](C)C(=O)N[C@@H](C)C(=O)N[C@@H](C)C(=O)N[C@@H](C)C(=O)N[C@@H](CCCN=C(N)N)C(=O)N[C@@H](CCCN=C(N)N)C(=O)N[C@@H](C)C(=O)N[C@@H](CCCN=C(N)N)C(=O)N[C@@H](CCCN=C(N)N)C(=O)N[C@@H](CCCN=C(N)N)C(=O)N[C@@H](C)C(=O)N[C@@H](C)C(=O)N[C@@H](C)C(=O)N[C@@H](C)C(=O)N[C@@H](C)C(=O)O` (H-AAAAARRARRRAAAAA-OH), for which the Kd was 18000 nM.

For `C[C@H](N)C(=O)N[C@@H](C)C(=O)N[C@@H](C)C(=O)N[C@@H](C)C(=O)N[C@@H](C)C(=O)N[C@@H](CCCN=C(N)N)C(=O)N[C@@H](CCCN=C(N)N)C(=O)N[C@@H](CCCN=C(N)N)C(=O)N[C@@H](CCCN=C(N)N)C(=O)N[C@@H](CCCN=C(N)N)C(=O)N[C@@H](C)C(=O)N[C@@H](C)C(=O)N[C@@H](C)C(=O)N[C@@H](C)C(=O)N[C@@H](C)C(=O)N[C@@H](C)C(=O)O` (H-AAAAARRRRRAAAAAA-OH), the Kd was determined as 66000 nM.

For the compound `C[C@H](N)C(=O)N[C@@H](C)C(=O)N[C@@H](C)C(=O)N[C@@H](C)C(=O)N[C@@H](CCCCN)C(=O)N[C@@H](CCCCN)C(=O)N[C@@H](CCCN=C(N)N)C(=O)N[C@@H](CCCN=C(N)N)C(=O)N[C@@H](C)C(=O)N[C@@H](CCCN=C(N)N)C(=O)N[C@@H](CCCN=C(N)N)C(=O)N[C@@H](CCCN=C(N)N)C(=O)N[C@@H](C)C(=O)N[C@@H](C)C(=O)N[C@@H](C)C(=O)O` (H-AAAAKKRRARRRAAA-OH), the Kd is 170 nM.

For `C[C@H](N)C(=O)N[C@@H](C)C(=O)N[C@@H](C)C(=O)N[C@@H](CCCN=C(N)N)C(=O)N[C@@H](C)C(=O)N[C@@H](C)C(=O)N[C@@H](CCCN=C(N)N)C(=O)N[C@@H](CCCN=C(N)N)C(=O)N[C@@H](C)C(=O)N[C@@H](CCCN=C(N)N)C(=O)N[C@@H](CCCN=C(N)N)C(=O)N[C@@H](CCCN=C(N)N)C(=O)N[C@@H](C)C(=O)N[C@@H](C)C(=O)N[C@@H](C)C(=O)O` (H-AAARAARRARRRAAA-OH), the dissociation constant Kd was 2900 nM.

With `C[C@H](N)C(=O)N[C@@H](C)C(=O)N[C@@H](C)C(=O)N[C@@H](CCCN=C(N)N)C(=O)N[C@@H](CCCCN)C(=O)N[C@@H](CCCCN)C(=O)N[C@@H](CCCN=C(N)N)C(=O)N[C@@H](CCCN=C(N)N)C(=O)N[C@@H](C)C(=O)N[C@@H](CCCN=C(N)N)C(=O)N[C@@H](CCCN=C(N)N)C(=O)N[C@@H](CCCN=C(N)N)C(=O)N[C@@H](C)C(=O)N[C@@H](C)C(=O)N[C@@H](C)C(=O)O` (H-AAARKKRRARRRAAA-OH), the Kd is 80 nM.

For the compound `C[C@H](N)C(=O)N[C@@H](C)C(=O)N[C@@H](C)C(=O)N[C@@H](CCCN=C(N)N)C(=O)N[C@@H](CCCCN)C(=O)N[C@@H](CCCCN)C(=O)N[C@@H](CCCN=C(N)N)C(=O)N[C@@H](CCCN=C(N)N)C(=O)N[C@@H](CCC(N)=O)C(=O)N[C@@H](CCCN=C(N)N)C(=O)N[C@@H](CCCN=C(N)N)C(=O)N[C@@H](CCCN=C(N)N)C(=O)N[C@@H](C)C(=O)N[C@@H](C)C(=O)N[C@@H](C)C(=O)O` (H-AAARKKRRQRRRAAA-OH), the Kd was 70 nM.
